# According to US9850283B2, “Macrocyclic inhibitors of the PD-1/PD-L1 and CD80(B7-1)/PD-L1 protein/protein interactions” (BRISTOL-MYERS SQUIBB COMPANY, priority 2013, dated 2017):
# Like-named read-outs stand apart in the source and are kept apart here. Positions of bridges follow the written chain, without caps; N, C: chain ends. Non-standard residues stand in square brackets, D forms with d. Residues, ends and D or L forms follow the SMILES beside them. ξ: configuration not given here. Phe(3-Cl) = N[C@@H](Cc1cccc(Cl)c1)C(=O)O; Phe(4-Cl) = N[C@@H](Cc1ccc(Cl)cc1)C(=O)O; Pro(4R-NH2) = N[C@H]1CN[C@H](C(=O)O)C1; Bta = N[C@@H](Cc1csc2ccccc12)C(=O)O; Hyp = O=C(O)[C@@H]1C[C@@H](O)CN1; NMeF = CN[C@@H](Cc1ccccc1)C(=O)O; 4Pal = N[C@@H](Cc1ccncc1)C(=O)O; NMeNle = CCCC[C@H](NC)C(=O)O; NMeA = CN[C@@H](C)C(=O)O; Dab = NCC[C@H](N)C(=O)O; Dap = NC[C@H](N)C(=O)O; ξC = NC(CS)C(=O)O; Sar = CNCC(=O)O
# Key:
# Human PD-L1/PD-1 = target: T1, Human PD-L1/PD-1 (Homo sapiens, UniProt Q9NZQ7); experiment: HTRF PD-1-Ig/PD-L1-His binding assay (human PD-L1); settings: cluster symbol; read-out: HTRF IC50 cluster
# T1 construct: made in house; host or cells: HEK293T
# Procedure, shortened: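 Interaction of Fc-tagged soluble PD-1 with His-tagged soluble PD-L1 is monitored by time-resolved FRET. Donor is europium cryptate anti-Ig (1 nM final) and acceptor is APC anti-His (20 nM final). Assay buffer is dPBS with 0.1% BSA and 0.05% Tween-20.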
# [1] = target: T2, LK35.2-hPD-L1 cells / PE-labeled PD-1-Ig (Homo sapiens, UniProt Q9NZQ7); experiment: LK35.2-hPD-L1 cell binding high-content screening assay; type: cell-based; settings: cluster symbol, read-out: CBA IC50 cluster
# T2 construct: expressed in transfected cells; host or cells: LK35.2 mouse B cell line
# Procedure, shortened: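 Readout: high-content imaging of PE-PD-1-Ig bound to LK35.2-hPD-L1 cells. Cells plated overnight (RPMI/10% FCS); compound + 1 nM PE-PD-1-Ig, 1 h, 37 °C; 3× dPBS wash before imaging.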
# [2] = cell line of CBA not given (LK35.2-hPD-L1 or 293T-hPD-L1)
# [3] = cell binding assay, cell line not given
# T1 sequence (Q9NZQ7 with tags, fused parts or gaps): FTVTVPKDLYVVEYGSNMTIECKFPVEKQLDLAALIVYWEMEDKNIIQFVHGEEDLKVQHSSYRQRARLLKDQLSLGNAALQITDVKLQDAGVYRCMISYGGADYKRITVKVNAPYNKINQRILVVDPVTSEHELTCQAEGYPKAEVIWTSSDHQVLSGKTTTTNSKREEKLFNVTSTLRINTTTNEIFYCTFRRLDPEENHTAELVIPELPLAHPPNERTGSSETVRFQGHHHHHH
# T2 sequence (Q9NZQ7 19-290): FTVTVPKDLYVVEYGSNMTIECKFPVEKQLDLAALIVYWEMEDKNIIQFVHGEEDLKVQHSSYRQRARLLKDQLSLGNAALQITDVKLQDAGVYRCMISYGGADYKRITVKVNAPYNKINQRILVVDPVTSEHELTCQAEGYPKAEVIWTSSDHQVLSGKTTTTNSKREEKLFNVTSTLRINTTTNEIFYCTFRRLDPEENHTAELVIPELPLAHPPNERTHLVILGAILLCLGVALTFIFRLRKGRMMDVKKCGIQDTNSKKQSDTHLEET
IC50 (Human PD-L1/PD-1),"IC50 [1, 2]","IC50 [1, 3]",Structure (SMILES)
6.76 to 30.3 nM,4.78 to 72.9 nM,,CCCC[C@H]1C(=O)N(C)[C@@H](CCCC)C(=O)N[C@@H](C)C(=O)N[C@H](C(=O)NCC(=O)O)CSCC(=O)N[C@@H](Cc2ccc(O)cc2)C(=O)N(C)[C@@H](C)C(=O)N[C@@H](CC(N)=O)C(=O)N2CCC[C@H]2C(=O)N[C@@H](Cc2cnc[nH]2)C(=O)N[C@@H](CC(C)C)C(=O)N[C@@H](CCN)C(=O)N[C@@H](Cc2c[nH]c3ccccc23)C(=O)N[C@@H](CO)C(=O)N[C@@H](Cc2c[nH]c3ccccc23)C(=O)N1C [Example 1229]
6.76 to 30.3 nM,4.78 to 72.9 nM,,CCCC[C@H]1C(=O)N(C)[C@@H](CCCC)C(=O)N[C@@H](CCCNC(=N)N)C(=O)N[C@H](C(=O)NCC(N)=O)CSCC(=O)N[C@@H](Cc2ccccc2)C(=O)N(C)[C@@H](C)C(=O)N[C@@H](CC(N)=O)C(=O)N2CCC[C@H]2C(=O)N[C@@H](CCN)C(=O)N[C@@H](CC(C)C)C(=O)N(C)CC(=O)N[C@@H](Cc2c[nH]c3ccccc23)C(=O)N[C@@H](CO)C(=O)N[C@@H](Cc2c[nH]c3ccccc23)C(=O)N1C [Example 1062] ({CH2CO}-F[NMeA]NP[Dab]L[Sar]WSW[NMeNle][NMeNle]RCG-NH2; thioether N-14)
0.385 to 6.74 nM,,0.158 to 4.71 nM,CCCC[C@H]1C(=O)N(C)[C@@H](CCCC)C(=O)N[C@@H](CCCNC(=N)N)C(=O)NC(C(=O)NCC(N)=O)CSCC(=O)N[C@@H](Cc2ccc(O)cc2)C(=O)N(C)[C@@H](C)C(=O)N[C@@H](CC(N)=O)C(=O)N2CCC[C@H]2C(=O)N[C@@H](Cc2cnc[nH]2)C(=O)N[C@@H](CC(C)C)C(=O)N2[C@@H](C)CC[C@H]2C(=O)N[C@@H](Cc2c[nH]c3ccccc23)C(=O)N[C@@H](CO)C(=O)N[C@@H](Cc2c[nH]c3ccccc23)C(=O)N1C (stereo partly drawn) [Example 9014]
0.385 to 6.74 nM,,0.158 to 4.71 nM,CCCC[C@H]1C(=O)N(C)[C@@H](CCCC)C(=O)N[C@@H](CCCNC(=N)N)C(=O)N[C@H](C(=O)NCC(N)=O)CSCC(=O)N[C@@H](Cc2ccc(OC)cc2)C(=O)N(C)[C@@H](C)C(=O)N[C@@H](CC(N)=O)C(=O)N2CCC[C@H]2C(=O)N[C@@H](Cc2cnc[nH]2)C(=O)N[C@@H](CC(C)C)C(=O)N2C[C@H](O)C[C@H]2C(=O)N[C@@H](Cc2c[nH]c3ccccc23)C(=O)N[C@@H](CO)C(=O)N[C@@H](Cc2c[nH]c3ccccc23)C(=O)N1C [Example 7060]
0.385 to 6.74 nM,0.158 to 4.71 nM,,CCCC[C@H]1C(=O)N(C)[C@@H](CCCC)C(=O)N[C@@H](CCCN)C(=O)N[C@H](C(=O)NCC(N)=O)CSCC(=O)N[C@@H](Cc2ccc(O)cc2)C(=O)N(C)[C@@H](C)C(=O)N[C@@H](CC(N)=O)C(=O)N2CCC[C@H]2C(=O)N[C@@H](Cc2cnc[nH]2)C(=O)N[C@@H](CC(C)C)C(=O)N2C[C@H](O)C[C@H]2C(=O)N[C@@H](Cc2c[nH]c3ccccc23)C(=O)N[C@@H](CO)C(=O)N[C@@H](Cc2c[nH]c3ccccc23)C(=O)N1C [Example 1123]
6.76 to 30.3 nM,,4.78 to 72.9 nM,CCCC[C@H]1C(=O)N(C)[C@@H](C)C(=O)N[C@@H](CCCNC(=N)N)C(=O)NC(C(=O)NCC(N)=O)CSCC(=O)N[C@@H](Cc2ccc(O)cc2)C(=O)N(C)[C@@H](C)C(=O)N[C@@H](CC(N)=O)C(=O)N2CCC[C@H]2C(=O)N[C@@H](Cc2cnc[nH]2)C(=O)N[C@@H](CC(C)C)C(=O)N2CCC[C@H]2C(=O)N[C@@H](Cc2c[nH]c3ccccc23)C(=O)N[C@@H](CO)C(=O)N[C@@H](Cc2csc3ccccc23)C(=O)N1C (stereo partly drawn) [Example 9053] ({CH2CO}-Y[NMeA]NPHLPWS[Bta][NMeNle][NMeA]R[ξC]G-NH2; thioether N-14)
6.76 to 30.3 nM,4.78 to 72.9 nM,,CCCC[C@H]1C(=O)N(C)[C@@H](CCCC)C(=O)N[C@@H](CCCNC(=N)N)C(=O)N[C@H](C(=O)NCC(N)=O)CSCC(=O)N[C@@H](Cc2ccccc2)C(=O)N(C)[C@@H](C)C(=O)N[C@@H](CC(N)=O)C(=O)N2CCC[C@H]2C(=O)N[C@@H](Cc2cnc[nH]2)C(=O)N[C@@H](CC(C)C)C(=O)N2CCC[C@H]2C(=O)N[C@@H](Cc2c[nH]c3ccccc23)C(=O)N[C@@H](CO)C(=O)N[C@@H](Cc2csc3ccccc23)C(=O)N1C [Example 1015] ({CH2CO}-F[NMeA]NPHLPWS[Bta][NMeNle][NMeNle]RCG-NH2; thioether N-14)
> 30.5 nM,,4.78 to 72.9 nM,CCCC[C@H]1C(=O)N(C)[C@@H](CCCC)C(=O)N[C@@H](CCCNC(=N)N)C(=O)N[C@H](C(=O)NCC(N)=O)CSCC(=O)N[C@@H](Cc2ccncc2)C(=O)N(C)[C@@H](C)C(=O)N[C@@H](CC(N)=O)C(=O)N2CCC[C@H]2C(=O)N[C@@H](Cc2cnc[nH]2)C(=O)N[C@@H](CC(C)C)C(=O)N2C[C@H](O)C[C@H]2C(=O)N[C@@H](Cc2c[nH]c3ccccc23)C(=O)N[C@@H](CO)C(=O)N[C@@H](Cc2c[nH]c3ccccc23)C(=O)N1C [Example 7029] ({CH2CO}-[4Pal][NMeA]NPHL[Hyp]WSW[NMeNle][NMeNle]RCG-NH2; thioether N-14)
0.385 to 6.74 nM,,0.158 to 4.71 nM,CCCC[C@H]1C(=O)N(C)[C@@H](CCCC)C(=O)N[C@@H](CCCNC(=N)N)C(=O)N[C@H](C(=O)NCC(N)=O)CSCC(=O)N[C@@H](Cc2ccc(Cl)cc2)C(=O)N(C)[C@@H](C)C(=O)N[C@@H](CC(N)=O)C(=O)N2CCC[C@H]2C(=O)N[C@@H](Cc2cnc[nH]2)C(=O)N[C@@H](CC(C)C)C(=O)N2C[C@H](O)C[C@H]2C(=O)N[C@@H](Cc2c[nH]c3ccccc23)C(=O)N[C@@H](CO)C(=O)N[C@@H](Cc2c[nH]c3ccccc23)C(=O)N1C [Example 7054] ({CH2CO}-[Phe(4-Cl)][NMeA]NPHL[Hyp]WSW[NMeNle][NMeNle]RCG-NH2; thioether N-14)

# Further lines, the compound ahead of its results:
Structure (SMILES),IC50 (Human PD-L1/PD-1),"IC50 [1, 2]","IC50 [1, 3]"
CCCC[C@H]1C(=O)N(C)CC(=O)N[C@@H](CC(=O)O)C(=O)N[C@@H](C(C)C)C(=O)N(C)[C@@H](Cc2ccccc2)C(=O)N[C@@H](Cc2ccc(O)cc2)C(=O)N(C)CC(=O)N[C@@H](Cc2c[nH]c3ccccc23)C(=O)N[C@@H](Cc2ccc(O)cc2)C(=O)N[C@@H](CC(C)C)C(=O)N[C@H](C(=O)NCC(N)=O)CSCC(=O)N[C@@H](Cc2cccc(Cl)c2)C(=O)N(C)[C@@H](Cc2ccccc2)C(=O)N1C [Example 3086] ({CH2CO}-[Phe(3-Cl)][NMeF][NMeNle][Sar]DV[NMeF]Y[Sar]WYLCG-NH2; thioether N-13),0.385 to 6.74 nM,0.158 to 4.71 nM,
CCCC[C@H]1C(=O)N[C@@H](Cc2c[nH]c3ccccc23)C(=O)N[C@@H](CCN)C(=O)N[C@@H](Cc2c[nH]c3ccccc23)C(=O)N(C)[C@@H](CCCC)C(=O)N(C)[C@@H](CCCC)C(=O)N[C@@H](CC(C)C)C(=O)N[C@H](C(=O)NCC(N)=O)CSCC(=O)N[C@@H](Cc2ccc(O)cc2)C(=O)N(C)[C@@H](C)C(=O)N[C@@H](CC(N)=O)C(=O)N2CCC[C@H]2C(=O)N[C@@H](CN)C(=O)N[C@@H](CC(C)C)C(=O)N1C [Example 6041] ({CH2CO}-Y[NMeA]NP[Dap]L[NMeNle]W[Dab]W[NMeNle][NMeNle]LCG-NH2; thioether N-14),6.76 to 30.3 nM,,4.78 to 72.9 nM
CCCC[C@H]1C(=O)N(C)[C@@H](CCCC)C(=O)N[C@@H](CCCNC(=N)N)C(=O)N[C@H](C(=O)NCC(N)=O)CSCC(=O)N[C@@H](Cc2ccc(O)cc2)C(=O)N(C)[C@@H](C)C(=O)N[C@@H](CCN)C(=O)N2CCC[C@H]2C(=O)N[C@@H](Cc2c[nH]cn2)C(=O)N[C@@H](CCC(=O)O)C(=O)N2C[C@H](O)C[C@H]2C(=O)N[C@@H](Cc2c[nH]c3ccccc23)C(=O)N[C@@H](CCN)C(=O)N[C@@H](Cc2c[nH]c3ccccc23)C(=O)N1C [Example 5086] ({CH2CO}-Y[NMeA][Dab]PHE[Hyp]W[Dab]W[NMeNle][NMeNle]RCG-NH2; thioether N-14),0.385 to 6.74 nM,,4.78 to 72.9 nM
CCCC[C@H]1C(=O)N(C)[C@@H](CCCC)C(=O)N[C@@H](CCN)C(=O)N[C@H](C(=O)NCC(N)=O)CSCC(=O)N[C@@H](Cc2ccc(O)cc2)C(=O)N(C)[C@@H](C)C(=O)N[C@@H](CC(=O)O)C(=O)N2CCC[C@H]2C(=O)N[C@@H](Cc2cnc[nH]2)C(=O)N[C@@H](CCC(=O)O)C(=O)N2C[C@H](O)C[C@H]2C(=O)N[C@@H](Cc2c[nH]c3ccccc23)C(=O)N[C@@H](CO)C(=O)N[C@@H](Cc2c[nH]c3ccccc23)C(=O)N1C [Example 5029] ({CH2CO}-Y[NMeA]DPHE[Hyp]WSW[NMeNle][NMeNle][Dab]CG-NH2; thioether N-14),0.385 to 6.74 nM,,0.158 to 4.71 nM
CCCC[C@H]1C(=O)N(C)[C@@H](CCCC)C(=O)N[C@@H](C)C(=O)N[C@H](C(=O)NCC(N)=O)CSCC(=O)N[C@@H](Cc2ccc(O)cc2)C(=O)N(C)[C@@H](C)C(=O)N[C@@H](CCC(=O)O)C(=O)N2CCC[C@H]2C(=O)N[C@@H](Cc2cnc[nH]2)C(=O)N[C@@H](CC(C)C)C(=O)N2C[C@H](O)C[C@H]2C(=O)N[C@@H](Cc2c[nH]c3ccccc23)C(=O)N[C@@H](CO)C(=O)N[C@@H](Cc2c[nH]c3ccccc23)C(=O)N1C [Example 1169],6.76 to 30.3 nM,4.78 to 72.9 nM,
CCCC[C@H]1C(=O)N(C)CC(=O)N[C@@H](CC(=O)O)C(=O)N[C@@H](C(C)C)C(=O)N(C)[C@@H](Cc2ccccc2)C(=O)N2C[C@H](N)C[C@H]2C(=O)N2CCC[C@@H]2C(=O)N[C@@H](Cc2c[nH]c3ccccc23)C(=O)N[C@@H](Cc2ccc(O)cc2)C(=O)N[C@@H](CC(C)C)C(=O)N[C@H](C(=O)NCC(N)=O)CSCC(=O)N[C@@H](Cc2ccccc2)C(=O)N(C)[C@@H](Cc2ccccc2)C(=O)N1C [Example 3178] ({CH2CO}-F[NMeF][NMeNle][Sar]DV[NMeF][Pro(4R-NH2)][dP]WYLCG-NH2; thioether N-13),6.76 to 30.3 nM,4.78 to 72.9 nM,
